The values below come from patent US20190029301A1, “USE OF LONG-TERM FASTING MIMICKING AS DIETARY TREATMENT FOR MULTIPLE MYELOMA AND OTHER CANCERS” (UNIVERSITY OF SOUTHERN CALIFORNIA, priority 2016, published 2019).

The conditions of data set [1]: Biaxin competes for the liver detoxification system that inactivates dexamethasone; cited from earlier work.
The subject of data set [2] is multiple myeloma. Put plainly: free kappa light chain tumor marker in a multiple myeloma patient (case report). The class given is in vivo, human. The settings on record: for response of free kappa light chain tumor marker / myeloma cells to the regimen: single patient, successive regimens 2006-2012 and later.
Data set [3] concerns multiple myeloma. The settings on record: cited from earlier work.
For data set [4] the following is noted: cited from earlier work.
Data set [5] in a line: side effects / peripheral neuropathy in the treated multiple myeloma patient. The class given is in vivo, human. The protocol:
The patient had previously only used IV bortezomib, since it had been effective up to that point. Resistance to bortezomib is thought to result from overproduction of proteosomal subunits, that then require a higher concentration of drug before enough subunits are blocked to reduce the degradation of misfolded myeloma antibodies. The highest recommended dose of bortezomib is 1.3 mg/m^2, since the next higher dose of 1.7 mg/m^2 regularly produces grade 3-4 peripheral neuropathy. […] The patient reasoned that reducing the toxicity of bortezomib by using SubQ rather than IV and using the FMED to induce protective stress-resistance pathways in their neural and supporting glial cells might allow the use of “toxic” doses of bortezomib. […] The first two cycles were performed to verify whether the approach worked. […] Since the “toxic” bortezomib dose was essentially monotherapy, a different IMID was added for a third cycle in the hope that the patient's MM cells would be sensitive and one would be treating with at least two drugs. One third of patients resistant to lenalidomide respond to pomalidomide, which was thus added during the third cycle.

[6] abbreviates: SubQ compared with IV bortezomib.

`CC[C@H]1OC(=O)[C@H](C)[C@@H](O[C@H]2C[C@@](C)(OC)[C@@H](O)[C@H](C)O2)[C@H](C)[C@@H](O[C@@H]2O[C@H](C)C[C@H](N(C)C)[C@H]2O)[C@](C)(OC)C[C@@H](C)C(=O)[C@H](C)[C@@H](O)[C@]1(C)O` [Biaxin]: the half-life of dexamethasone result in data set [1] is recorded as “increases”.
With `CC(C)C[C@H](NC(=O)[C@H](CCc1ccccc1)NC(=O)CN1CCOCC1)C(=O)N[C@@H](Cc1ccccc1)C(=O)N[C@@H](CC(C)C)C(=O)[C@@]1(C)CO1` [carfilzomib], in the data set on multiple myeloma [2], the “response of free kappa light chain tumor marker / myeloma cells to the regimen” value is “ineffective”.
Turning to `Nc1cccc2c1CN(C1CCC(=O)NC1=O)C2=O` (centres unmarked) [revlimid, lenalidomide], in the data set on multiple myeloma [2], the “response of free kappa light chain tumor marker / myeloma cells to the regimen” value was “developed resistance”.
`Nc1cccc2c1C(=O)N(C1CCC(=O)NC1=O)C2=O` (centres unmarked) [pomalidomide]: the “fraction of patients resistant to lenalidomide that respond” value in the data set with multiple myeloma [3] (lenalidomide-resistant patients) was “One third”.
On to `CC(C)C[C@H](NC(=O)[C@H](Cc1ccccc1)NC(=O)c1cnccn1)B(O)O` [bortezomib], for which the “effectiveness of SubQ versus IV administration” value in the data set on multiple myeloma [3] (setting [6]) is “as effective as IV bortezomib”. For the same molecule, the tumor markers response result in the data set on multiple myeloma [2] (SubQ bortezomib at "toxic" dose 1.7 mg/m^2 combined with FMED, FIG. 3) is “rapid drop”. In the data set on multiple myeloma [2] (subcutaneous bortezomib 1.7 mg/m^2 with FMED, bortezomib-resistant patient), the bortezomib sensitivity result was “restore bortezomib sensitivity”. Moreover, in data set [4] (setting [6]), the “side effects of SubQ versus IV administration” value is on record as “reduced side effects”. Further, in data set [4] (dose of 1.7 mg/m^2), the peripheral neuropathy grade is reported as 3-4. Besides, the side-effects result in data set [5] (subcutaneous bortezomib 1.7 mg/m^2 with FMED) was “minimal side-effects”. In addition, in data set [5] (three cycles of SubQ "toxic" bortezomib + FMED (pomalidomide added in third cycle)), the peripheral neuropathy progression result was “only minor progression”.
